These results are taken from EP0604355B1, “Akyl Substituted heterocyclic compounds” (N[…]/S, priority 1992, dated 1994).

Each structure is given as a SMILES string. Structures can show the parent of a compound that is named as a salt.

The target of test [1] is reuptake of dopamine in synaptosomes of rat forebrain (Rattus norvegicus, UniProt P23977). In words: biochemical.
Protocol: Fresh whole forebrain (at 0-4°C) from male Wistar rats (150-200 g) is homogenized in a glass homogenizer with a Teflon pestle in 20 x volumes 0.32M sucrose. The homogenate is centrifuged at 1000 x g (∼2900 rpm) for 10 min. The pellet is discarded and the supernatant is used for uptake assays.
The samples are thoroughly mixed and incubated 10 min at 37°C followed by 2 min at 0°C. After incubation the samples are poured directly onto Whatman GF/C glass fibre filters under suction and immediately washed with 2 x 5 ml ice-cold 0.9% saline (NaCl) buffer. To the filter is added 3 ml of scintillation fluid, and the amount of radioactivity on the filters is determined by conventional liquid scintillation counting.
Test [2] concerns haloperidol-induced catalepsy. In words: animal or person. The following applies: Rattus norvegicus, read-out: Minimum effective dose (peroral administration).
Description: The principle behind the haloperidol catalepsy test relates to the fact that the drug haloperidol (Serenase®) induces a receptor blockade of post synaptic dopamine receptors within the dopamine innervated corpus striatum of the rat brain. Following the blockade of active dopamine neurotransmission of the striatum a state of rigid immobility is induced, during which the rat can be placed in various totally abnormal immobile postures involving the forelegs and the whole body.
The day before testing, the rats weighing 200-250 g are housed 2 and 2 together in standard macrolon cages.
The testing for the immobile catalepsy syndrome includes 4 tests performed in the following consecutive order: • 1) a vertical wire netting (40x40 cm high).The meshes (openings) of the nettings are approximately 1x2cm. • 2) a horizontal bar 9 cm above the floor • 3) a 9 cm high block (bar) • 4) a 3 cm high block (cork)
The rats were scored for the immobile cataleptic syndrome every 15 min in all 4 tests starting 15 min after the haloperidol injection. The intensity of catalepsy was tested during 10 sec in all tests and evaluated according to a criteria of 10 sec of total immobility for a score of 2.
The rat was placed in the middle of the vertical wire netting, then on the horizontal bar in an extended position with support by both the forelegs on the bar. […]
Test [3] relates to dopamine releasing properties. In words: dopamine releasing properties (no method described). The following applies: in contrast to Win 35,428 and cocaine.

reuptake of dopamine in synaptosomes of rat forebrain, sequence (P23977 whole entry): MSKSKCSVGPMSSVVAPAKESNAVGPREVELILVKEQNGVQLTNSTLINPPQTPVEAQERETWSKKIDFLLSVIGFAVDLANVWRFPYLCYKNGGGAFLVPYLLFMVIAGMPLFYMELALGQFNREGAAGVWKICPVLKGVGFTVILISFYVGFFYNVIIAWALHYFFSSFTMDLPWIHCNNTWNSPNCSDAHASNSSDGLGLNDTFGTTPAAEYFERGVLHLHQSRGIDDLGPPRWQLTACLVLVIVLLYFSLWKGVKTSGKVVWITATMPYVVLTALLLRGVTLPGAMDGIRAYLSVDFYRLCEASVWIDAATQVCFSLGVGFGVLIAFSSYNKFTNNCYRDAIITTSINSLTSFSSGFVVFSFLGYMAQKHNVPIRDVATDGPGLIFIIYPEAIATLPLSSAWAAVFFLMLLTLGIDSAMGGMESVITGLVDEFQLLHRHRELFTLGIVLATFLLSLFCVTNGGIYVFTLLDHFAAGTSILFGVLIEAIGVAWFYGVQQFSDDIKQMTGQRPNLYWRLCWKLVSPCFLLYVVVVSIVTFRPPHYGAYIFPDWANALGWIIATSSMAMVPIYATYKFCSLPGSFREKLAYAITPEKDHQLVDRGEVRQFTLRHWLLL

Usually IC50 stands for the concentration that inhibits the measured activity by half. `CN1[C@H]2CC[C@@H]1[C@H](c1nc(-c3ccccc3)no1)[C@@H](c1ccc(Cl)cc1)C2` [(1R,2R,3S)-2-(3-Phenyl1,2,4-oxadiazol-5-yl)-3-(4-chlorophenyl)-tropane, hydrochloride]: 330 nM corresponded to half-maximal inhibition in test [1] (IC50). Still for that read-out and setting: the result for `Cc1ccc([C@H]2C[C@@H]3CC[C@H]([C@@H]2c2nc(-c4ccccc4)no2)N3C)cc1` [(1R,2R,3S)-2-(3-Phenyl-1,2,4-oxadiazol-5-yl)-3-(4-methylphenyl)-tropane, hydrochloride] reads 960 nM. Take `Cc1noc([C@@H]2[C@@H](c3ccc(Cl)cc3)C[C@@H]3CC[C@H]2N3C)n1.Cl` [(1R,2R,3S)-2-(3-Methyl-1,2,4-oxadiazol-5-yl)-3-(4-chlorophenyl)-tropane, hydrochloride]: the minimal effective dose in test [2] was more than 1 mg/kg.

Take `COC(=O)[C@@H]1[C@@H](c2ccc(F)cc2)C[C@@H]2CC[C@H]1N2C` [trans isomer of Win 35,428, (1R,2R,3S)-2-carbomethoxy-3-(4-fluorophenyl)tropane]: the dopamine releasing properties entry in test [3] was “essentially free of dopamine releasing properties”. The molecule `CN1[C@H]2CC[C@@H]1[C@H](c1nc(-c3ccccc3)no1)[C@@H](c1ccc3ccccc3c1)C2` [(1R,2R,3S)-2-(3-Phenyl-1,2,4-oxadiazol-5-yl)-3-(2-naphthyl)tropane, hydrochloride] had an IC50 in test [1] of 540 nM.
